PMC7187627 (Antimicrobial Agents and Chemotherapy, 2019)

Test: Safety and tolerability (adverse events, laboratory tests, ECG), multiple-ascending-dose phase 1 study
Assay type: in vivo
Conditions: all TEAEs
Source text: Subjects were monitored closely with serial physical examinations, blood evaluations, and 12-lead ECGs. Subjects underwent safety laboratory testing, including measurement of blood cell counts (white blood cell [WBC] with differential, hemoglobin, and platelets), serum chemistry (sodium, potassium, chloride, calcium, bicarbonate, glucose, creatinine, blood urea nitrogen [BUN], creatine kinase [CK], aspartate aminotransferase [AST], alanine aminotransferase [ALT], alkaline phosphatase [ALP], total bilirubin, protein, albumin, amylase, and lipase) and urinalysis (protein, blood, and glucose). Study halting criteria had been established and were reviewed by an independent safety monitor (ISM) and the Safety Monitoring Committee (SMC) prior to proceeding with dosing within a cohort or to the next cohort.
The safety population included all subjects who received at least one dose of the study drug. The safety and tolerability of CRS3123 were evaluated by the sequential review of reported adverse events (AEs), changes from baseline in physical examination findings, vital sign measurements, safety laboratory tests (hematology, clinical chemistry, and urinalysis), and key 12-lead ECG findings. All safety assessments were summarized with descriptive statistics or frequency counts.
The period of observation for AE reporting began on day 1 at the time of study drug administration and continued through the final visit.
All AEs were coded to system organ class (SOC) and preferred term (PT) using the Medical Dictionary for Regulatory Activities (MedDRA), version 17.0 (https://www.meddra.org/). A treatment-emergent AE (TEAE) was defined as any AE that occurred during the study observation period (i.e., from day 1 at the time of study drug administration through the final visit). An AE with a partial onset date was classified as a TEAE if the reported partial onset date could not definitely be identified as before the date of study drug administration. Any AE with a missing onset date or missing time on day of study drug administration was classified as a TEAE.
To count the overall number of subjects who experienced each TEAE and calculation of an occurrence rate, a subject experiencing multiple occurrences of an AE was counted only once for that PT. Similarly, if a subject experienced multiple TEAEs within the same SOC, that subject was counted once to calculate an occurrence rate for the SOC. To count the number of subjects who experienced each TEAE by severity classification (mild, moderate, severe, and life-threatening) and calculate an occurrence rate, a subject experiencing multiple occurrences of an AE of the same severity was counted once in that particular severity classification for that PT. If a subject experienced multiple occurrences of an AE of differing severities, only the most severe occurrence within each PT was counted.

In the case of `O=c1cc(NCCCN[C@@H]2CCOc3c(Br)cc(Br)cc32)[nH]c2ccsc12` [CRS3123], the “No. (%) of subjects: Aspartate aminotransferase increased” value (Cohort A, 200 mg Q12h (n = 8)) is reported as 0 (0.0), the “No. (%) of subjects: Blood bilirubin increased” value (Cohort A, 200 mg Q12h (n = 8)) is reported as 0 (0.0) and the “No. (%) of subjects: Blood calcium increased” value (Cohort A, 200 mg Q12h (n = 8)) is reported as 0 (0.0). The “No. (%) of subjects: Blood potassium increased” value (Cohort A, 200 mg Q12h (n = 8)) was 0 (0.0), the “No. (%) of subjects: Blood pressure, diastolic, decreased” value (Cohort A, 200 mg Q12h (n = 8)) was 0 (0.0) and the “No. (%) of subjects: Blood pressure, diastolic, increased” value (Cohort A, 200 mg Q12h (n = 8)) was 0 (0.0). The “No. (%) of subjects: Blood pressure, systolic, decreased” value (Cohort A, 200 mg Q12h (n = 8)) was 0 (0.0), the “No. (%) of subjects: Blood pressure, systolic, increased” value (Cohort A, 200 mg Q12h (n = 8)) was 0 (0.0) and the “No. (%) of subjects: Diarrhea” value (Cohort A, 200 mg Q12h (n = 8)) was 0 (0.0). For the same molecule, the “No. (%) of subjects: Dry skin” value (Cohort A, 200 mg Q12h (n = 8)) was 0 (0.0), the “No. (%) of subjects: Dysgeusia” value (Cohort A, 200 mg Q12h (n = 8)) was 0 (0.0) and the “No. (%) of subjects: Ear and labyrinth disorders (system organ class)” value (Cohort A, 200 mg Q12h (n = 8)) was 1 (12.5). For the same molecule, the “No. (%) of subjects: Ear discomfort” value (Cohort A, 200 mg Q12h (n = 8)) was 1 (12.5), the “No. (%) of subjects: Erythema” value (Cohort A, 200 mg Q12h (n = 8)) was 0 (0.0) and the “No. (%) of subjects: Gastrointestinal disorders (system organ class)” value (Cohort A, 200 mg Q12h (n = 8)) was 0 (0.0). For the same molecule, the “No. (%) of subjects: General disorders and administration site conditions (system organ class)” value (Cohort A, 200 mg Q12h (n = 8)) was 0 (0.0), the “No. (%) of subjects: Headache” value (Cohort A, 200 mg Q12h (n = 8)) was 1 (12.5) and the “No. (%) of subjects: Hemoglobin decreased” value (Cohort A, 200 mg Q12h (n = 8)) was 2 (25.0). The “No. (%) of subjects: Infections and infestations (system organ class)” value (Cohort A, 200 mg Q12h (n = 8)) was 1 (12.5), the “No. (%) of subjects: Infusion site thrombosis” value (Cohort A, 200 mg Q12h (n = 8)) was 0 (0.0) and the “No. (%) of subjects: Injury, poisoning, and procedural complications (system organ class)” value (Cohort A, 200 mg Q12h (n = 8)) was 1 (12.5). The “No. (%) of subjects: Investigations (system organ class)” value (Cohort A, 200 mg Q12h (n = 8)) was 5 (62.5), the “No. (%) of subjects: Lipase increased” value (Cohort A, 200 mg Q12h (n = 8)) was 1 (12.5) and the “No. (%) of subjects: Musculoskeletal and connective tissue disorders (system organ class)” value (Cohort A, 200 mg Q12h (n = 8)) was 0 (0.0). For the same molecule, the “No. (%) of subjects: Myalgia” value (Cohort A, 200 mg Q12h (n = 8)) was 0 (0.0), the “No. (%) of subjects: Nervous system disorders (system organ class)” value (Cohort A, 200 mg Q12h (n = 8)) was 1 (12.5) and the “No. (%) of subjects: Oropharyngeal pain” value (Cohort A, 200 mg Q12h (n = 8)) was 0 (0.0). For the same molecule, the “No. (%) of subjects: Psychiatric disorders (system organ class)” value (Cohort A, 200 mg Q12h (n = 8)) was 1 (12.5), the “No. (%) of subjects: Respiratory, thoracic, and mediastinal disorders (system organ class)” value (Cohort A, 200 mg Q12h (n = 8)) was 0 (0.0) and the “No. (%) of subjects: Skin and subcutaneous tissue disorders (system organ class)” value (Cohort A, 200 mg Q12h (n = 8)) was 0 (0.0). The “No. (%) of subjects: Subjects with TEAEs” value (Cohort A, 200 mg Q12h (n = 8)) was 8 (100.0), the “No. (%) of subjects: Throat irritation” value (Cohort A, 200 mg Q12h (n = 8)) was 0 (0.0) and the “No. (%) of subjects: Upper respiratory tract infection” value (Cohort A, 200 mg Q12h (n = 8)) was 1 (12.5). For the same molecule, the “No. (%) of subjects: White blood cell count increased” value (Cohort A, 200 mg Q12h (n = 8)) was 0 (0.0), the “No. (%) of subjects: Alanine aminotransferase increased” value (Cohort B, 400 mg Q12h (n = 8)) was 0 (0.0) and the “No. (%) of subjects: Amylase increased” value (Cohort B, 400 mg Q12h (n = 8)) was 1 (12.5). The “No. (%) of subjects: Anxiety” value (Cohort B, 400 mg Q12h (n = 8)) was 0 (0.0), the “No. (%) of subjects: Arthropod bite” value (Cohort B, 400 mg Q12h (n = 8)) was 0 (0.0) and the “No. (%) of subjects: Aspartate aminotransferase increased” value (Cohort B, 400 mg Q12h (n = 8)) was 0 (0.0). The “No. (%) of subjects: Blood bilirubin increased” value (Cohort B, 400 mg Q12h (n = 8)) was 0 (0.0), the “No. (%) of subjects: Blood calcium increased” value (Cohort B, 400 mg Q12h (n = 8)) was 1 (12.5) and the “No. (%) of subjects: Blood potassium increased” value (Cohort B, 400 mg Q12h (n = 8)) was 1 (12.5). The “No. (%) of subjects: Blood pressure, diastolic, decreased” value (Cohort B, 400 mg Q12h (n = 8)) was 0 (0.0), the “No. (%) of subjects: Blood pressure, diastolic, increased” value (Cohort B, 400 mg Q12h (n = 8)) was 0 (0.0) and the “No. (%) of subjects: Blood pressure, systolic, decreased” value (Cohort B, 400 mg Q12h (n = 8)) was 0 (0.0). The “No. (%) of subjects: Blood pressure, systolic, increased” value (Cohort B, 400 mg Q12h (n = 8)) was 0 (0.0) and the “No. (%) of subjects: Diarrhea” value (Cohort B, 400 mg Q12h (n = 8)) was 2 (25.0).
